Molecules are shown by their SMILES. Where two headings read alike, the source gives them in different places.

This is an account of results in patent US10662187B2, “Bruton's tyrosine kinase inhibitors” (Zibo Biopolar Changsheng Pharmaceutical Co. Ltd., priority 2016, dated 2020).

Test [1] has as its target T1, BTK (Homo sapiens (Human), UniProt Q06187). Put plainly: Btk kinase assay (HTRF). Type of test: biochemical. The method, then:
Btk Kinase Assay and Other Kinases Assay Btk kinase activity was determined using a homogenous time resolved fluorescence (HTRF) methodology. Measurements were performed in a reaction volume of 15 μL using 384-well assay plates. Kinase enzyme, inhibitor, ATP and 1 μM peptide substrate were incubated in a reaction buffer compose of Hepes 50 mM (pH7.0), NaN3 0.02%, BSA 0.01%, Orthocanadate 0.1 mM. […] For each compound, enzyme activity as measured at various concentrations of compound, Negative control reactions were performed in the absence of inhibitor in two replicates and eight no enzyme controls were used to determine baseline fluorescence levels.
A general note: TR-FRET usually uses a lanthanide donor and a delayed reading to cut background.
Target sequence in this assay (Q06187 whole entry, species assumed): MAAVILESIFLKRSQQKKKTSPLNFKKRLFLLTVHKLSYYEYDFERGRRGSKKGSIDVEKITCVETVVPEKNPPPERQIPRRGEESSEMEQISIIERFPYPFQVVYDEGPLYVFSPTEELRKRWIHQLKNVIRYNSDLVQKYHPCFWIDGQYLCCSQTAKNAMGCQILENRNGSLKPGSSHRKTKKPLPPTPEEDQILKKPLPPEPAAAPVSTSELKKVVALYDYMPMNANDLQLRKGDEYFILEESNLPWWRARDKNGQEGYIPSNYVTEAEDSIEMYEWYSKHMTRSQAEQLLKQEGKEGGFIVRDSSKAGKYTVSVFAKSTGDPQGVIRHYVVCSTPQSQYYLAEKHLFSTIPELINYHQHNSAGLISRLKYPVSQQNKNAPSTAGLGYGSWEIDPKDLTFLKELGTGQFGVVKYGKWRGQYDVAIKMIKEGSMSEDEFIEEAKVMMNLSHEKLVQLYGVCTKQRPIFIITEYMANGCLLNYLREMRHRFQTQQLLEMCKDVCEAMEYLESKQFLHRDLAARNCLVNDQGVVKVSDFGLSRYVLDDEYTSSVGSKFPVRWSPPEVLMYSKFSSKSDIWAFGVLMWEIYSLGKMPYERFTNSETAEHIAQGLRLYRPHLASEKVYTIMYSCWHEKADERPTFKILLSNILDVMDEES

The target of test [2] is T1, BTK. Put plainly: Btk occupancy in cellular assays (PCI-33380 labeling, Jeko-1 cells). Type of test: cell-based. Conditions: 1.5 h pre-incubation with compound, PCI-33380 5 μM 1 h. The procedure:
Btk Occupancy in Cellular Assays
For PCI-33380 labeling of human B cells, 10^6 Jeko-1 cells were pre-incubated with compound for 1.5 h before labeling. Then cells were treated with PCI-33380 at 5 μM for 1 h. Washed, lysed in Ripa buffer containing sample reducing agent, and analyzed by SDS/PAGE and fluorescent gel scanning using a Typhoon scanner 9500 (GE Healthcare) (Ex, 532 nm; Em, 555 nm). The gel was then blotted and total Btk levels detected by standard Western blot with Btk antibody (CST).
Target sequence in this assay (Q06187 whole entry): as the sequence (Q06187 whole entry, species assumed) above

[3] abbreviates: [ATP]=80 μM, BTK=3.4 nM, read-out: BTK Inhibition.

As to `C=CC(=O)N1CC[C@@H](n2nc(-c3ccc(Oc4cccc(OC)c4Cl)cc3)c3cncc(OC)c32)C1` [Compound 69, (R)-1-(3-(3-(4-(2-chloro-3-methoxyphenoxy)phenyl)-7-methoxy-1H-pyrazolo[4,3-c]pyridin-1-yl)pyrrolidin-1-yl)prop-2-en-1-one], the IC50 on BTK [1] (setting [3]) is less than 10 nM. Moreover, the “concentration sufficient to fully occupy the active site of Btk” value (from here on “concentration sufficient”) at BTK [2] was 100 nM.
As to `C=CC(=O)N1CCC[C@@H](n2nc(-c3ccc(Oc4cccc(OC)c4F)cc3)c3cncc(OCCC)c32)C1` [Compound 77, (R)-1-(3-(3-(4-(2-fluoro-3-methoxyphenoxy)phenyl)-7-propoxy-1H-pyrazolo[4,3-c]pyridin-1-yl)piperidin-1-yl)prop-2-en-1-one], at BTK [1] (setting [3]), the IC50 is less than 10 nM. At BTK [2], the “concentration sufficient” value worked out at 25 nM.
Take `C=CC(=O)N1CCC[C@@H](n2nc(-c3ccc(Oc4cccc(OC)c4F)cc3)c3c(C)nccc32)C1` [Compound 78, (R)-1-(3-(3-(4-(2-fluoro-3-methoxyphenoxy)phenyl)-4-methyl-1H-pyrazolo[4,3-c]pyridin-1-yl)piperidin-1-yl)prop-2-en-1-one]: the IC50 at BTK [1] (setting [3]) was less than 10 nM. The “concentration sufficient” value at BTK [2] was 50 nM.
As to `CC#CC(=O)N1CCC[C@@H](n2nc(-c3ccc(Oc4cccc(OC)c4F)cc3)c3cncc(OCCN(C)C)c32)C1` [Compound 94, (R)-1-(3-(7-(2-(dimethylamino)ethoxy)-3-(4-(2-fluoro-3-methoxyphenoxy)phenyl)-1H-pyrazolo[4,3-c]pyridin-1-yl)piperidin-1-yl)but-2-yn-1-one], the IC50 at BTK [1] (setting [3]) was 10 to 100 nM.
On the same count and under the same terms, next, `C=CC(=O)N1CCC[C@H](n2nc(-c3ccc(C(=C)c4ccccc4)cc3)c3cnccc32)C1` [Compound 95, (S)-1-(3-(3-(4-(1-phenylvinyl)phenyl)-1H-pyrazolo [4,3-c]pyridin-1-yl)piperidin-1-yl)prop-2-en-1-one]: 10 to 100 nM; `C=CC(=O)N1CCC[C@@H](n2nc(-c3ccc(Oc4cccc(OC)c4F)cc3)c3cncc(OC(C)C)c32)C1` [Compound 96, (R)-1-(3-(3-(4-(2-fluoro-3-methoxyphenoxy)phenyl)-7-isopropoxy-1H-pyrazolo[4,3-c]pyridin-1-yl)piperidin-1-yl)prop-2-en-1-one]: 10 to 100 nM.
Turning to `C=CC(=O)N1CC[C@@H](n2nc(-c3ccc(OCc4ccccc4F)cc3)c3cnccc32)C1` [Compound 100, (R)-1-(3-(3-(4-((2-fluorobenzyl)oxy)phenyl)-1H-pyrazolo[4,3-c]pyridin-1-yl)pyrrolidin-1-yl)prop-2-en-1-one], at BTK [1] (setting [3]), the IC50 fell in the range of 10 to 100 nM.
Take `C=CC(=O)N1CCC[C@@H](n2nc(-c3ccc(OCc4ccccc4F)cc3)c3cnccc32)C1` [Compound 101, (R)-1-(3-(3-(4-((2-fluorobenzyl)oxy)phenyl)-1H-pyrazolo[4,3-c]pyridin-1-yl)piperidin-1-yl)prop-2-en-1-one]: the IC50 at BTK [1] (setting [3]) fell in the range of 10 to 100 nM.
For the molecule `C=CC(=O)N1CCC[C@@H](n2nc(-c3ccc(COc4ccccc4)cc3)c3ccccc32)C1` [Compound 102, (R)-1-(3-(3-(4-(phenoxymethyl)phenyl)-1H-indazol-1-yl)piperidin-1-yl)prop-2-en-1-one], on BTK [1], the IC50 was 10 to 100 nM.
For `C=CC(=O)N1CC[C@@H](n2nc(-c3ccc(C(=O)NCc4cccc(OC)c4)cc3)c3cnccc32)C1` [Compound 103, (R)-4-(1-(1-acryloylpyrrolidin-3-yl)-1H-pyrazolo[4,3-c]pyridin-3-yl)-N-(3-methoxybenzyl)benzamide], at BTK [1] (setting [3]), the IC50 is 100 to 1000 nM.
Turning to `C=CC(=O)N1CCC[C@@H](n2nc(-c3ccc(C(=O)NCc4cccc(OC)c4)cc3)c3cnccc32)C1` [Compound 104, (R)-4-(1-(1-acryloylpiperidin-3-yl)-1H-pyrazolo[4,3-c]pyridin-3-yl)-N-(3-methoxybenzyl)benzamide], the IC50 at BTK [1] (setting [3]) lay within 100 to 1000 nM.
As for `CC#CC(=O)N1CCC[C@@H](n2nc(-c3ccc(C(=O)Nc4ccccn4)cc3)c3cnccc32)C1` [Compound 105, (R)-4-(1-(1-(but-2-ynoyl)piperidin-3-yl)-1H-pyrazolo [4,3-c]pyridin-3-yl)-N-(pyridin-2-yl)benzamide], on BTK [1] (setting [3]), the IC50 was 100 to 1000 nM.
For the molecule `C=CC(=O)N1CC[C@@H](n2nc(-c3ccc(-c4cccc(C)c4)cc3)c3cnccc32)C1` [Compound 107, (R)-1-(3-(3-(3′-methyl-[1,1′-biphenyl]-4-yl)-1H-pyrazolo[4,3-c]pyridin-1-yl)pyrrolidin-1-yl)prop-2-en-1-one], at BTK [1] (setting [3]), the IC50 is 10 to 100 nM.
Take `C=CC(=O)N1CC[C@@H](n2nc3ccncc3c2-c2ccc(-c3cccc(C)c3)cc2)C1` [Compound 108, (R)-1-(3-(3-(3′-methyl-[1,1′-biphenyl]-4-yl)-2H-pyrazolo[4,3-c]pyridin-2-yl)pyrrolidin-1-yl)prop-2-en-1-one]: the IC50 on BTK [1] (setting [3]) was in the range of 100 to 1000 nM.
In the case of `C=CC(=O)N1CCC[C@@H](n2nc(-c3ccc(N4CCC(N5CCCCC5)CC4)cc3)c3cnccc32)C1` [Compound 110, (R)-1-(3-(3-(4-([1,4′-bipiperidin]-1′-yl)phenyl)-1H-pyrazolo [4,3-c]pyridin-1-yl)piperidin-1-yl)prop-2-en-1-one], at BTK [1] (setting [3]), the IC50 is 10 to 100 nM.
As to `C=CC(=O)N1CC[C@@H](n2nc(-c3ccc(N4CCN(C)CC4)cc3)c3cnccc32)C1` [Compound 112, (R)-1-(3-(3-(4-(4-methylpiperazin-1-yl)phenyl)-1H-pyrazolo [4,3-c]pyridin-1-yl)pyrrolidin-1-yl)prop-2-en-1-one], the IC50 at BTK [1] (setting [3]) is 100 to 1000 nM.
Regarding `C=CC(=O)N1CCC[C@@H](n2nc(Nc3ccc(N4CCN(C)CC4)cc3)c3cnccc32)C1` [Compound 114, (R)-1-(3-(3-((4-(4-methylpiperazin-1-yl)phenyl)amino)-1H-pyrazolo[4,3-c]pyridin-1-yl)piperidin-1-yl)prop-2-en-1-one], the IC50 on BTK [1] (setting [3]) is 1000 to 10000 nM.
On to `C=CC(=O)N1CCC[C@@H](n2nc(-c3ccc(N4CCN(S(C)(=O)=O)CC4)cc3)c3cnccc32)C1` [Compound 115, (R)-1-(3-(3-(4-(4-(methylsulfonyl)piperazin-1-yl)phenyl)-1H-pyrazolo[4,3-c]pyridin-1-yl)piperidin-1-yl)prop-2-en-1-one], for which, at BTK [1] (setting [3]), the IC50 lay in the range of 100 to 1000 nM.
In the case of `C=CC(=O)N1CCC(n2nc(-c3ccc(NC(=O)c4cccc(C(F)(F)F)c4)cc3)c3cnccc32)C1` (stereo not drawn) [Compound 116, N-{4-[1-(1-Acryloyl-pyrrolidin-3-yl)-1H-pyrazolo[4,3-c]pyridin-3-yl]-phenyl}-3-trifluoromethyl-benzamide], at BTK [1] (setting [3]), the IC50 was in the range of 10 to 100 nM.
Same read-out and setting: next, `C=CC(=O)N1CCC[C@@H](n2nc(-c3ccc(NC(=O)c4cccc(C(F)(F)F)c4)cc3)c3cnccc32)C1` [Compound 117, (R)-N-(4-(1-(1-acryloylpiperidin-3-yl)-1H-pyrazolo[4,3-c]pyridin-3-yl)phenyl)-3-(trifluoromethyl)benzamide]: 10 to 100 nM; `COc1cccc(Oc2ccc(-c3nn([C@@H]4CCCN(C(=O)C(C)O)C4)c4c(OC)cncc34)cc2)c1F` (stereo partly drawn) [Compound 118, 1-((R)-3-(3-(4-(2-fluoro-3-methoxyphenoxy)phenyl)-7-methoxy-1H-pyrazolo[4,3-c]pyridin-1-yl)piperidin-1-yl)-2-hydroxypropan-1-one]: 10 to 100 nM.
`COc1cccc(Oc2ccc(-c3nn([C@@H]4CCCN(C(=O)C(=O)O)C4)c4c(OC)cncc34)cc2)c1F` [Compound 119, (R)-2-(3-(3-(4-(2-fluoro-3-methoxyphenoxy)phenyl)-7-methoxy-1H-pyrazolo[4,3-c]pyridin-1-yl)piperidin-1-yl)-2-oxoacetic acid]: on BTK [1] (setting [3]), the IC50 fell in the range of 10 to 100 nM.
On to `COc1cccc(Oc2ccc(-c3nn([C@@H]4CCCN(C(=O)C(N)=O)C4)c4c(OC)cncc34)cc2)c1F` [Compound 120, (R)-2-(3-(3-(4-(2-fluoro-3-methoxyphenoxy)phenyl)-7-methoxy-1H-pyrazolo[4,3-c]pyridin-1-yl)piperidin-1-yl)-2-oxoacetamide], for which the IC50 at BTK [1] (setting [3]) lay in the range of 10 to 100 nM.
Turning to `COc1cccc(Oc2ccc(-c3nn([C@@H]4CCCC(C(=O)O)C4)c4c(OC)cncc34)cc2)c1F` (stereo partly drawn) [Compound 121, (3R)-3-(3-(4-(2-fluoro-3-methoxyphenoxy)phenyl)-7-methoxy-1H-pyrazolo[4,3-c]pyridin-1-yl)cyclohexanecarboxylic acid], the IC50 at BTK [1] was 10 to 100 nM.
Turning to `COc1cccc(Oc2ccc(-c3nn(C4CCC(C(=O)O)CC4)c4c(OC)cncc34)cc2)c1F` (stereo not drawn) [Compound 122, 4-(3-(4-(2-fluoro-3-methoxyphenoxy)phenyl)-7-methoxy-1H-pyrazolo[4,3-c]pyridin-1-yl)cyclohexanecarboxylic acid], the IC50 on BTK [1] (setting [3]) is less than 10 nM.
The same measure, in the same setting: the value for `O=C(Nc1ccc(-c2nn(C3CCC(C(=O)O)CC3)c3ccncc23)cc1)c1ccccc1` (stereo not drawn) [Compound 123, 4-(3-(4-benzamidophenyl)-1H-pyrazolo[4,3-c]pyridin-1-yl)cyclohexanecarboxylic acid] was greater than 10000 nM; that for `O=C(O)C1CCC(n2nc(-c3ccc(-c4ccccc4)cc3)c3cnccc32)CC1` (stereo not drawn) [Compound 124, 4-(3-([1,1′-biphenyl]-4-yl)-1H-pyrazolo[4,3-c]pyridin-1-yl)cyclohexanecarboxylic acid] was greater than 10000 nM.
